Patent publication US20160287553A1, “TRANSLATION INHIBITORS IN HIGH-DOSE CHEMO- AND/OR HIGH-DOSE RADIOTHERAPY” (DEUTSCHES KREBSFORSCHUNGSZENTRUM, priority 2013, published 2016)

Experiments:
Peripheral blood T cells = assay: Etoposide-induced apoptotic cell death of T cells (DNA fragmentation, AnnexinV, FSC/SSC); conditions: for Protection of normal T cells from Etoposide-induced cell death by Roc-derivatives: 50 μM Etoposide, 75 nM Roc-derivative, 24 h (FIG. 6b)
Protocol: The human malignant cell lines EU-3 (acute lymphoblastic leukemia), DND-41 (T cell leukemia), Hut-78 (T cell lymphoma), SKW6.4 (B cell leukemia), Reh (acute lymphoblastic leukemia), IM-9 (Chronic myeloid leukemia), HL-60 (promyelocytic leukemia), L1236 (Hodgkin's lymphoma) and NCI-H209 (small cell lung cancer) were cultured at 37° C. with 5% CO2 in RPMI-1640 medium (Sigma-Aldrich, Munich, Germany) supplemented with 10% FCS, 100 U/ml Penicillin (Sigma-Aldrich, Munich, Germany) and 100 μg/ml Streptamycin (Sigma-Aldrich, Munich, Germany) SCLC-21H cells (small cell lung cancer) were cultured in DMEM medium (Sigma-Aldrich, Munich, Germany) supplemented with 10% FCS. Peripheral blood T lymphocytes were isolated as previously described (Klas et al., Int Immunol. 1993; 5: 625-630). B lymphocytes and NK cells were isolated by magnetic activated cell sorting using “B cell isolation kit II” (Miltenyi Biotech, Bergisch Gladbach, Germany) and “NK cell isolation kit, human” (Miltenyi Biotech, Bergisch Gladbach, Germany), respectively, according to the manufacturer's instructions. Human neutrophils were separated from peripheral blood mononuclear cells by Ficoll-Paque density centrifugation, followed by incubation in 1.05% dextran for 30 min at room temperature. Remaining erythrocytes were lysed by resuspension in ice-cold 0.2% sodium chloride solution. After 1 min ice-cold 1.6% sodium-chloride solution was added and lysis was stopped by addition of PBS and neutrophils were resuspended in medium at a concentration of 2×10^6 cells/ml. Human primary cardiomyocytes were purchased from PromoCell (Heidelberg, Germany) and cultured in Myocyte Growth Medium (PromoCell, Heidelberg, Germany). Remaining primary human cells were cultured in RPMI-1640 medium with the same conditions described above.
Apoptotic cell death was determined by AnnexinV staining, cellular forward scatter/side scatter (FSC/SSC) profile, or DNA fragmentation. For AnnexinV staining, 2×10^5 cells were treated with different drugs for indicated time periods, washed with AnnexinV binding buffer (0.01 M Hepes, 0.14 M NaCl, 2.5 mM CaCl2), and stained with AnnexinV-FITC antibody (Immunotools, Friesoythe, Germany) and 7-amino-actinomycin D (Sigma-Aldrich, Munich, Germany) for 30 min at 4° C. The amount of AnnexinV positive cells was determined by FACS measurement. DNA fragmentation was determined according to the method of Nicoletti (Nicoletti et al., J Immunol Methods. 1991; 139: 271-279). Briefly, 2×10^5 cells were treated as indicated, washed with PBS and lysed in Nicoletti buffer (0.1% sodium citrate, 0.1% Triton X-100, 50 μg/ml propidium iodide). DNA fragmentation was determined by FACS. Apoptosis-like cells were determined by forward scatter and side scatter (FSC/SSC) index. Specific DNA fragmentation/specific AnnexinV positive cells/specific apoptosis was calculated as follows: (percentage of experimental DNA fragmentation (or Annexin V positive cells or apoptosis)−percentage of spontaneous DNA fragmentation (or Annexin V positive cells or apoptosis)/(100−percentage of spontaneous DNA fragmentation (or Annexin V positive cells or apoptosis))×100.

Primary human T cells = assay: Ionizing radiation (IR)-induced apoptosis in T cells; assay type: cell-based; conditions: 24 h, increasing doses of IR, different concentrations of FL3 (FIG. 8b)
Protocol: (§1) DNA fragmentation was determined by FACS.
The radioprotective effect mediated by Roc-A was the highest when cells were treated with Roc-A 1 h before radiation of cells (FIG. 1d). However, when cells were treated 4 h after radiation, the radioprotective effect was still higher than 50% (FIG. 1d).

p53 = p53 protein expression by immunoblot; assay type: cell-based, human; conditions: T cells, 100 nM Bortezomib
Protocol: Immunoblot analysis was carried out as previously described (Polier et al., Chem Biol. 2012; 19: 1093-1104). Briefly, 4-20×10^6 cells were treated with different reagents as indicated and lysed in RIPA buffer (50 mM Tris HCl, 137 mM NaCl, 0.5% Na Deoxycholate, 1% Triton X-100, 0.1% SDS, protease inhibitors). Proteins were separated by SDS-PAGE and transferred to a nitrocellulose membrane (Amersham Biosciences, Little Chalfon, UK) using a semi-dry blotting approach. The following antibodies were used: p53 (DO-1) antibody was purchased from Santa Cruz Biotechnology (Heidelberg, Germany). Tubulin and actin (A5441) antibodies were purchased from Sigma-Aldrich (St. Louis, USA).
The transcription factor p53 is a major regulator of DNA damage-induced apoptosis (Lowe et al., Cell. 1993; 74: 957-967). Therefore, we investigated the effect of Roc-A on the expression level of p53.
p53 protein expression can be regulated at the level of transcription, translation, and ubiquitination-mediated degradation (Marine & Lozano, Cell Death Differ. 2010; 17: 93-102). It has been shown that upon DNA damage p53 undergoes post-translational modifications leading to its deubiquitination and, thus, stabilization (Lee & Gu, Cell Death Differ. 2010; 17: 86-92). To investigate whether Roc-A could decrease p53 stability, we treated T cells with the proteasome inhibitor Bortezomib to block proteasome-mediated degradation.

non-malignant cells = assay: Fold change in cell death on raising the Etoposide dose, non-malignant cells (FIG. 9a-b); assay type: cell-based; conditions: Etoposide from 6.25 μM to 50 μM, 24 h, solvent (FIG. 9a)
Protocol: (§2) (a) Cells from (b) were grouped into malignant and non-malignant cells. Shown are means of three independent experiments. Abbreviations; HSPCs=hematopoietic stem and progenitor cells. (c-d) Malignant and non-malignant cells were exposed to ionizing radiation (IR) in the presence of 75 nM Roc-A or solvent (DMSO) and cell death was determined after 24 h by DNA fragmentation. Depicted is the fold-change in cell death that was measured when doses of IR were increased from 2 Gy to 10 Gy. (c) Cells from (d) were grouped into malignant and non-malignant cells. Shown are means of three independent experiments.
as §1
(§3) Roc-A specifically prevents the cause of chemotherapeutic and radiation-induced side-effects, i.e., the death of healthy cells. […] Consequently, high-dose therapy is not possible, as side effects would be too high.

malignant cells = assay: Fold change in cell death on raising the Etoposide dose, malignant cells (FIG. 9a-b); assay type: cell-based; conditions: Etoposide from 6.25 μM to 50 μM, 24 h, solvent (FIG. 9a)
Protocol: as §2, §1, §3

[1] = tested on: protein synthesis in T cells; assay: Translation assay: [35S]methionine incorporation in T cells; assay type: cell-based, human; conditions: T cells (FIG. 6b)
Protocol: The relative amount of protein synthesis was determined by measuring the amount of incorporation of ^35S-methionine into the protein. Briefly, cells were pre-cultured in methionine-free medium (supplemented with 10% dialyzed FCS) for 3 h, followed by incubation with 3.5 μCi of ^35S-methionine-labeling mix (PerkinElmer, Waltham, Mass., USA) per 8×10^5 cells for 6 h as indicated. After the treatment, cells were washed twice with ice-cold PBS and lysed in RIPA buffer. 50 μl of each lysate were added to 1 ml of Liquid Scintillation Cocktail solution (Beckman Coulter, Brea, Calif., USA) and the amount of incorporated radioactivity was determined by liquid scintillation counting.
Roc-A has been well documented to inhibit protein translation (Polier et al., Chem Biol. 2012; 19: 1093-1104; Sadlish et al., ACS Chem Biol. 2013; doi:10.1021/cb400158t; Bleumink et al., Cell Death Differ. 2011; 18: 362-370; Cencic et al., PloS one. 2009; 4: e5223). Thus, we expected that Roc-A-mediated suppression of genotoxin-induced p53 upregulation may be regulated by inhibition of p53 protein synthesis.

ERK = conditions: Polier et al., op. cit.; cited from earlier work

Structure (SMILES)	Protection of normal T cells from Etoposide-induced cell death by Roc-derivatives (Peripheral blood T cells)	Inhibition of [35S]methionine incorporation (protein translation) [1]	Inhibitory effect on ERK activity / activation (ERK)	other results
COc1cc(OC)c2c(c1)O[C@@]1(c3ccc(Br)cc3)[C@H](c3ccccc3)C[C@@H](O)[C@@]21O (racemic) [FL3, racemic bromo-demethoxy-rocaglaol]	–	–	–	Protection of T cells from Etoposide-induced apoptotic cell death by FL3 (Peripheral blood T cells; 24 h, increasing doses of Etoposide, different concentrations of FL3 (FIG. 8a)): protects T cells; Protection of T cells from IR-induced apoptotic cell death by FL3 (Primary human T cells): protects T cells
CC(C)C[C@H](NC(=O)[C@H](Cc1ccccc1)NC(=O)c1cnccn1)B(O)O [Bortezomib, reference compound]	–	–	–	Interference with Roc-A block of Etoposide-induced p53 upregulation (p53; 50 μM Etoposide, 75 nM Roc-A, 4 h (FIG. 6a)): did also not interfere with the ability of Roc-A to block Etoposide-induced p53 upregulation; p53 level on proteasome inhibition (p53; absence of Roc-A (FIG. 6a)): led to an increase in p53; p53 level on proteasome inhibition (p53; presence of 75 nM Roc-A (FIG. 6a)): could not increase p53
COc1cc([C@@H]2c3cc4c(cc3[C@@H](O[C@@H]3O[C@@H]5CO[C@@H](C)O[C@H]5[C@H](O)[C@H]3O)[C@H]3COC(=O)[C@H]23)OCO4)cc(OC)c1O [Etoposide, reference compound]	–	–	–	Cell death of normal T cells by the genotoxin (Peripheral blood T cells; 24 h, increasing concentrations of Etoposide): caused cell death of normal T cells; Increase in Etoposide-induced cell death (non-malignant cells): up to 3 fold; Increase in Etoposide-induced cell death (malignant cells): approximately 3 fold
COC(=O)C1C(OC(C)=O)C2(O)c3c(OC)cc(OC)cc3OC2(c2ccc(OC)cc2)C1c1ccccc1 (centres unmarked) [Roc-AA, C-1-O-acetyl-methylrocaglate]	did not protect T cells	did not inhibit protein translation	do not show any or very little inhibitory effects on ERK activity	–
COc1ccc([C@@]23Oc4cc(OC)cc(OC)c4[C@]2(O)[C@H](OC(C)=O)[C@H](C(=O)N(C)C)[C@H]3c2ccccc2)cc1 [Roc-AB, 1-O-acetyl-rocaglamide]	different levels of protection	inhibited [^35S]methionine incorporation at different degrees	inhibit ERK activation with different efficacies	–
COC(=O)C1C(O)C2(O)c3c(OC)cc(OC)cc3OC2(c2ccc3c(c2)OCO3)C1c1ccccc1 (centres unmarked) [Roc-AF, 30,40-methylendioxy-methylrocaglate]	did not protect T cells	did not inhibit protein translation	do not show any or very little inhibitory effects on ERK activity	–
COc1cc(OC)c2c(c1)OC1(c3ccc4c(c3)OCO4)C(c3ccccc3)CC(=O)C21O (centres unmarked) [Roc-AR, 1-oxo-40-demethoxy-30,40-methylenedioxyrocaglaol]	different levels of protection	inhibited [^35S]methionine incorporation at different degrees	inhibit ERK activation with different efficacies	–
COc1cc(OC)c2c(c1)OC1(c3ccc(OC)c(O)c3)C(c3ccccc3)C(C(=O)N(C)C)C(OC(C)=O)C21O (centres unmarked) [Roc-I, C-1-O-acetyl-30-hydroxy-rocaglamide]	did not protect T cells	did not inhibit protein translation	do not show any or very little inhibitory effects on ERK activity	–
COC(=O)[C@H]1[C@@H](O)[C@@]2(O)c3c(OC)cc(OC)cc3O[C@@]2(c2ccc(OC)c(O)c2)[C@@H]1c1ccccc1 [Roc-J, 30-hydroxyaglafoline]	different levels of protection	inhibited [^35S]methionine incorporation at different degrees	inhibit ERK activation with different efficacies	–
CNC(=O)[C@H]1[C@@H](O)[C@@]2(O)c3c(OC)cc(OC)cc3O[C@@]2(c2ccc(OC)cc2)[C@@H]1c1ccccc1 [Roc-Q, demethylrocaglamide]	different levels of protection	inhibited [^35S]methionine incorporation at different degrees	inhibit ERK activation with different efficacies	–
